We go through four molecules from US20260048036A1, “CRYSTALLINE FORMS OF A GLUCOSYLCERAMIDE SYNTHASE INHIBITOR AND USES THEREOF” (ACELINK THERAPEUTICS, INC., priority 2022, published 2026).

Positions count from the first letter of the chain named. Values joined by “and” are separate entries in the source; they are usually repeats but may differ in a detail not shown here. Equal entries are not always repeated.

Series [1] in a line: Solubility at 37° C. in pH buffers and bio-relevant media.
Series [2] in a line: Solid state stability, 1 week (HPLC purity, color, XRPD). The following applies: for Bulk (XRPD) / Purity, Bulk (HPLC): Solid state, 1 week; for Purity, Bulk (HPLC): initial purity 99.8%.
The nature of series [3]: Hygroscopicity by DVS at 25° C. It is filed as physicochemical.
For series [4], the target named is T1, Glucosylceramide synthase (GCS) (Canis lupus familiaris, UniProt A0A8I3MXG6).
T1 construct: The MDCK, K-562, and L6 cell lines all endogenously express GCS enzyme; host or cells: MDCK (canine kidney) cell lysate
T1 sequence (A0A8I3MXG6 1-394): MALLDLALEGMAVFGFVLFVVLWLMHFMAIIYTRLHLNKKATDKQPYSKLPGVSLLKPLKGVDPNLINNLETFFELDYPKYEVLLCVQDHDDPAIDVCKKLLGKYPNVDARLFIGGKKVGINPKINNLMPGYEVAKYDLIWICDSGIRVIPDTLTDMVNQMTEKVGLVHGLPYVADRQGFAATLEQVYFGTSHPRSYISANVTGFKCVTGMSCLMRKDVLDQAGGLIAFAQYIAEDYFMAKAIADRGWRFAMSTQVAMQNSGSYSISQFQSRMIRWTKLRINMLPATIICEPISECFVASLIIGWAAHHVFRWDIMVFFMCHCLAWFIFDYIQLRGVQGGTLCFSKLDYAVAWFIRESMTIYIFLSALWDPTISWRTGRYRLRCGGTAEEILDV
Put plainly: GCS enzymatic assay with MDCK cell lysate. Type of series: biochemical, canine. The source says: (§1) The reaction product, C6-NBD-glucosylceramide, could then be detected and quantified by LC-MS/MS. The inventors used this method to test and validate the effect of various GCS inhibitors on GCS enzyme activity from different species.
(§2) The GCS enzyme activity was detected by using the fluorescent substrate, C6-NBD-ceramide, and monitoring the formation of the fluorescent reaction product, C6-NBD-glucosylceramide. First, the inventors used cell lysate derived from a canine kidney cell line (MDCK, ATCC Cat #CCL-34™) as the source of GCS and tested the inhibitory activity of several control and test compounds.
(§3) GCS activity was evaluated using a GCS enzyme assay derived from MDCK or L6 cell lysates.
(§4) MDCK or L6 cell lysates were prepared using M-PER in the presence of a protease inhibitor cocktail. Each 100 mm dish (100% confluent) was lysed with 250 μl of M-PER containing protease inhibitors. Protein concentration was determined using Pierce BCA protein assay kit.
The final concentration of DMSO was 0.1% in both compound treated and DMSO only treated samples. Each individual reaction was terminated with 11 volumes of methanol:acetonitrile (6:5; containing 200 ng/ml Tolbutamide as internal control). After sufficient mixing, reactions were centrifuged at 2000 rpm for 10 mins, supernatant was injected into the LC-MS/MS for analysis.
(§5) The quantitative analysis of C6-NBD-glucosylceramide was performed on a Shimadzu ultra-fast liquid chromatography coupled with API 4000 mass spectrometer. Analyst 1.5 software packages were used to control the LC-MS/MS system, as well as for data acquisition and processing.
(§6) The C6-NBD-glucosylceramide reading was normalized first by dividing the peak area of C6-NBD-glucosylceramide with the peak area of the internal standard, and then the amount was calculated according to the standard curve generated in the same assay run. For the cell based assay results, the amount of C6-NBD-glucosylceramide was also normalized by the protein concentration of the cell samples.
IC50 values were generated from sigmoidal dose-response (variable slope) curves with GraphPad Prism software (GraphPad Software, Inc., San Diego, CA) using the percent inhibition of C6-NBD-glucosylceramide accumulation relative to DMSO control.

For series [5], the target named is T2, Glucosylceramide synthase (GCS) (Rattus norvegicus, UniProt Q9R0E0).
T2 construct: The MDCK, K-562, and L6 cell lines all endogenously express GCS enzyme; host or cells: L6 rat skeletal muscle cell lysate
T2 sequence (Q9R0E0 1-394): T1 sequence (A0A8I3MXG6 1-394) with L8Q, V13L, A29S, D96E, G131A, K164R, R249K, A251S, T377A
Description: GCS enzymatic assay with L6 cell lysate. It is filed as biochemical. Particulars: 1 μM, N = 1, N = 2.
From the text: In this study, the inventors developed a reliable method to monitor GCS catalytic activity using the fluorescent substrate, C6-NBD-ceramide. The reaction product, C6-NBD-glucosylceramide, could then be detected and quantified by LC-MS/MS. The inventors used this method to test and validate the effect of various GCS inhibitors on GCS enzyme activity from different species.
The MDCK, K-562, and L6 cell lines all endogenously express GCS enzyme and were used to test the effect of various GCS inhibitors on enzyme originating from different species. The GCS enzyme activity was detected by using the fluorescent substrate, C6-NBD-ceramide, and monitoring the formation of the fluorescent reaction product, C6-NBD-glucosylceramide. First, the inventors used cell lysate derived from a canine kidney cell line (MDCK, ATCC Cat #CCL-34™) as the source of GCS and tested the inhibitory activity of several control and test compounds. The inventors then used the human leukemia K-562 cell line (ATCC Cat #[…]) to test the effect of these GCS inhibitors on intact living cells. Finally, a cell lysate derived from a rat skeletal muscle cell line, L6 (ATCC Cat #[…]), was used to test the effect of these GCS inhibitors on rodent GCS enzyme.
as §3, §4
Sixty micrograms of MDCK lysate was incubated with various concentrations of compounds (0.00001 μM-1 μM) in 100 mM Tris buffer (pH 7.5) containing 10 mM MgCl2, 1 mM dithiothreitol, 1 mM EGTA, 2 mM NAD, 100 μM UDP-glucose, 10 μM C6-NBD-ceramide with 35 μM dioleoylphosphatidylcholine/5 μM sulfatide in a final reaction volume of 100 μl at 37° C. for 1 hour. The final concentration of DMSO was 0.1% in both compound treated and DMSO only treated samples. Each individual reaction was terminated with 11 volumes of methanol:acetonitrile (6:5; containing 200 ng/ml Tolbutamide as internal control). After sufficient mixing, reactions were centrifuged at 2000 rpm for 10 mins, supernatant was injected into the LC-MS/MS for analysis.
For the assay with L6 cell lysate, different amounts of L6 cell lysate were used.
as §5, §6
To confirm the inhibitory activity of test compounds on GCS from different species, cells from rat were used. First, the presence of GCS activity was verified using various amounts of L6 cell lysate (FIG. 34, Table 26).

Series [6] has as its target T3, Glucosylceramide synthase (GCS) (Homo sapiens, UniProt Q16739).
T3 construct: The MDCK, K-562, and L6 cell lines all endogenously express GCS enzyme; host or cells: K-562 human leukemia cells, live
T3 sequence (Q16739 1-394): T1 sequence (A0A8I3MXG6 1-394) with V20L, S196Y
Description: GCS cell-based assay with live K-562 cells. Particulars: C6-NBD-glucosylceramide by LC-MS/MS.
From the text: as §1, §2, §5
The C6-NBD-glucosylceramide reading was normalized first by dividing the peak area of C6-NBD-glucosylceramide with the peak area of the internal standard, and then the amount was calculated according to the standard curve generated in the same assay run. For the cell based assay results, the amount of C6-NBD-glucosylceramide was also normalized by the protein concentration of the cell samples. […]

Setting [7] is: 1 μM, 60 μg MDCK lysate/reaction, N = 1, N = 2.

As to `O=C(N[C@H](CN1CCCC1)[C@H](O)c1ccc(OC2CC2)c(Cl)c1)/C(=N/O)c1ccc2cc(Cl)ccc2c1.O=C(O)C[C@H](O)C(=O)O`, the “higher solubility than that of the free form Crystalline Form A of Compound 1” value in series [1] (pH 4.5 buffer, 37° C.) was “about 3 folds”. Besides, the “chemical and physical stability” value in series [2] (25° C./92% RH open container, 40° C./75% RH open container, 60° C. tight container, one week) was “chemically and physically stable”. In addition, the “Bulk (XRPD)” value is listed as “No form change” in series [2] (25° C./92% RH, open container); “No form change” in series [2] (40° C./75% RH, open container); “No form change” in series [2] (60° C., tight container). Moreover, the “Purity, Bulk (HPLC)” value in series [2] (25° C./92% RH, open container) was 99.8%; in series [2] (40° C./75% RH, open container), 99.8%; in series [2] (60° C., tight container), 99.8%. The “XRPD after DVS test” value in series [3] is “No form change”. Also, the “hygroscopicity (DVS)” value in series [3] is “slightly hygroscopic”. Moreover, the “Desorp. (DVS)” value in series [3] (0% RH) is 0.17%; in series [3] (10% RH) it was 0.22%; in series [3] (20% RH) it was 0.26%; in series [3] (30% RH), 0.30%; in series [3] (40% RH), 0.33%. Further, the “Sorp. (water uptake by DVS)” value turned out to be 0.17% in series [3] (0% RH); 0.22% in series [3] (10% RH); 0.26% in series [3] (20% RH); 0.30% in series [3] (30% RH); 0.33% in series [3] (40% RH); 0.36% in series [3] (50% RH). Further, the “Sorp. (water uptake by DVS)” value in series [3] (60% RH) came to 0.40%; in series [3] (70% RH), 0.48%; in series [3] (80% RH) it was 0.56%; in series [3] (90% RH), 0.92%. Also, the “water uptake increased from 40% RH to 90% RH” value in series [3] (DVS) is “about 0.59%”.

In the case of `O=C(N[C@H](CN1CCCC1)[C@H](O)c1ccc(OC2CC2)c(Cl)c1)/C(=N/O)c1ccc2cc(Cl)ccc2c1` [Compound 1, (E)-N-((1R,2R)-1-(3-chloro-4-cyclopropoxyphenyl)-1-hydroxy-3-(pyrrolidin-1-yl)propan-2-yl)-2-(6-chloronaphthalen-2-yl)-2-(hydroxyimino)acetamide], in series [1] ([…]), the “pH dependence of solubility” value is “typical pH dependent solubility”.

Broadly, the Inhibition is the drop in the measured response relative to a control, in per cent. Usually inhibition stands for the drop in the measured response relative to a control, in per cent. Higher therefore signals a strong effect. A word on the IC50: it is the concentration that gives 50% inhibition. A higher IC50 goes with a need for much substance. With `CCCCCCCC(=O)N[C@H](CN1CCCC1)[C@H](O)c1ccc2c(c1)OCCO2` [Eliglustat, reference compound], the “C6-NBD-Ceramide (Normalized to internal control)” value in series [4] (setting [7]) is 4.68 and 4.99; in series [5] (30 μg L6 lysate/reaction) it was 5.98 and 6.37; in series [5] (60 μg L6 lysate/reaction), 6.47 and 5.46; in series [5] (120 μg L6 lysate/reaction), 5.82 and 6.23; in series [5] (180 μg L6 lysate/reaction), 5.60 and 5.41; in series [5] (240 μg L6 lysate/reaction), 4.96 and 5.12. Also, the “C6-NBD-Glucosylceramide Concentration” value in series [4] (setting [7]) is 49.8 nM and 59.3 nM; in series [5] (30 μg L6 lysate/reaction) it was 31.2 nM and 51.0 nM; in series [5] (60 μg L6 lysate/reaction) it was 50.2 nM and 44.1 nM; in series [5] (120 μg L6 lysate/reaction), 48.4 nM and 57.9 nM; in series [5] (180 μg L6 lysate/reaction), 63.6 nM and 63.3 nM; in series [5] (240 μg L6 lysate/reaction) it was 56.2 nM and 57.7 nM. For the same molecule, the Inhibition in series [4] (setting [7]) is given as 94.01%; in series [5] (30 μg L6 lysate/reaction), 92.48%; in series [5] (60 μg L6 lysate/reaction), 96.04%; in series [5] (120 μg L6 lysate/reaction), 95.77%; in series [5] (180 μg L6 lysate/reaction), 95.22%; in series [5] (240 μg L6 lysate/reaction), 95.21%. Besides, the inhibition at 1 µM in series [4] (setting [7]) was 95%; in series [5] (30 μg L6 lysate/reaction) it was 95.4%; in series [5] (60 μg L6 lysate/reaction), 95.5%; in series [5] (120 μg L6 lysate/reaction), 96.5%; in series [5] (180 μg L6 lysate/reaction), 95.2%; in series [5] (240 μg L6 lysate/reaction), 95.3%. Besides, in series [4] (MDCK cell lysate as source of GCS, C6-NBD-glucosylceramide by LC-MS/MS), the midpoint of inhibition, the IC50, lay at 52.2 nM.

The molecule `O=C(N[C@H](CN1CCCC1)[C@H](O)c1ccc(OC2CC2)c(Cl)c1)/C(=N\O)c1ccc2cc(Cl)ccc2c1` [Geometric isomer of Compound 1] showed an IC50 in series [6] of 14.8 nM.
